Assay results reported in patent publication US6642217B2, “Triterpenes having human antifungal and antiyeast activity” (Naturtek, LLC, priority 2000, dated 2003).

Experiments:
[1] = system: Trichophyton tonsurans; assay: Summary of anti-fungal assays (direct addition, agar dilution, liquid culture); assay type: cell-based; conditions: stated in words (Tables 1a/1b, text to Table 5)
Experimental: (§1) This example summarizes the results of various other assays of the anti-fungal activity of betulin derivatives. Table 5 summarizes results using different assay methods—direct addition, agar dilution, and direct addition to liquid culture, as disclosed in the previous three Examples. In some cases, only one type of assay was done with a compound. In other cases, the compound was tested by multiple assays.

[2] = system: Microsporum audouinii; assay: as above; assay type: cell-based; conditions: stated in words (Tables 1a/1b, text to Table 5)
Experimental: as §1

[3] = system: Trichophyton tonsuran; assay: Agar dilution method, growth on Sabouraud dextrose agar slants; assay type: cell-based, Trichophyton tonsurans; set-up: key: +++: Maximum Fungal Growth; ++: Moderate Fungal Growth; +: Minimum Fungal Growth; +/−: Very little Fungal Growth; −: No Fungal Growth; conditions: 12th day after inoculation
Experimental: (§2) Agar dilution method. Sabouraud Dextrose Agar (Difco Laboratories, Michigan) was prepared according to the manufacturer's instructions. Five ml was dispensed in a 100×25 mm tube and autoclaved. To each tube containing 5.0 ml of liquid agar at 45° C., 0.5, 0.25, 0.12, or 0.063 ml of a DMSO solution of the compound was added to give the final indicated concentrations in Table 2. The agar was then solidified in slants. Fungal cultures were inoculated. The slants were incubated at 25-28° C. for 10-12 days, and the growth of the fungus was recorded every second day.

[4] = system: Microsporum canis; assay: as above; assay type: cell-based; set-up: key: +++: Maximum Fungal Growth; ++: Moderate Fungal Growth; +: Minimum Fungal Growth; +/−: Very little Fungal Growth; −: No Fungal Growth; conditions: 12th day after inoculation
Experimental: as §2

[5] = system: Microsporum gypseum; assay: as above; assay type: cell-based; set-up: key: +++: Maximum Fungal Growth; ++: Moderate Fungal Growth; +: Minimum Fungal Growth; +/−: Very little Fungal Growth; −: No Fungal Growth; conditions: 12th day after inoculation
Experimental: as §2

[6] = system: Pityrosporum ovale; assay: as above; assay type: cell-based; set-up: key: +++: Maximum Fungal Growth; ++: Moderate Fungal Growth; +: Minimum Fungal Growth; +/−: Very little Fungal Growth; −: No Fungal Growth; conditions: 12th day after inoculation
Experimental: as §2

[7] = system: Trichophyton rubrum; assay: as above; assay type: cell-based; set-up: key: +++: Maximum Fungal Growth; ++: Moderate Fungal Growth; +: Minimum Fungal Growth; +/−: Very little Fungal Growth; −: No Fungal Growth; conditions: 12th day after inoculation
Experimental: as §2

[8] = system: Trichophyton mentagrophyte; assay: as above; assay type: cell-based, Trichophyton mentagrophytes; set-up: key to Fungal growth: +++: Maximum Fungal Growth; ++: Moderate Fungal Growth; +: Minimum Fungal Growth; +/−: Very little Fungal Growth; −: No Fungal Growth; conditions: 12th day after inoculation
Experimental: as §2

[9] = system: Epidermophyton floccosum; assay: as above; assay type: cell-based; set-up: key to Fungal growth: +++: Maximum Fungal Growth; ++: Moderate Fungal Growth; +: Minimum Fungal Growth; +/−: Very little Fungal Growth; −: No Fungal Growth; conditions: 12th day after inoculation
Experimental: as §2

[10] = system: Microsporum audouinni; assay: as above; assay type: cell-based, Microsporum audouinii; set-up: key: +++: Maximum Fungal Growth; ++: Moderate Fungal Growth; +: Minimum Fungal Growth; +/−: Very little Fungal Growth; −: No Fungal Growth; conditions: 12th day after inoculation
Experimental: as §2

[11] = system: Microsporum audouinni; assay: Direct addition method, solid compound in Sabouraud dextrose agar; assay type: cell-based, Microsporum audouinii; set-up: key to Fungal growth: +++: Maximum Fungal Growth; ++: Moderate Fungal Growth; +: Minimum Fungal Growth; +/−: Very little Fungal Growth; −: No Fungal Growth; conditions: 4 mg/mL of agar; 12th day after inoculation
Experimental: (§3) Direct addition method. Sabouraud dextrose agar was prepared according to the manufacturer's instructions and 5.0 ml was dispensed in each 100×25 mm tube. The tubes were autoclaved. To each tube containing 5.0 ml of liquid agar at 45° C., 20 mg of solid test compound was added, to give a final concentration of 4 mg/ml. The agar was solidified in slants. The fungal cultures were then innoculated. The slants were incubated at 25-28 ° C. for 10-12 days, and the growth of the fungus was recorded every second day. The results in Table 2 indicate growth at the 12th day of inoculation.

[12] = system: Pityrosporum ovale; assay: Direct addition into the Pityrosporum agar; assay type: cell-based; set-up: key to Pityrosporum ovale growth: +++: Maximum Growth; ++: Moderate Growth; +: Minimum Growth; +/−: Very Little Growth; −: No Growth; conditions: 4 mg/ml in the agar; 18 hours after inoculation
Experimental: Direct addition method. Sabouraud dextrose agar was prepared according to the manufacturer's instructions and 5.0 ml was dispensed in each 100×25 mm tube. The tubes were autoclaved. To each tube containing 5.0 ml of liquid agar at 45° C., 20 mg of solid test compound was added, to give a final concentration of 4 mg/ml. The agar was solidified in slants. The fungal cultures were then innoculated. […]

[13] = system: Microsporum canis; assay: Direct addition method, solid compound in Sabouraud dextrose agar; assay type: cell-based; set-up: key: +++: Maximum Fungal Growth; ++: Moderate Fungal Growth; +: Minimum Fungal Growth; +/−: Very little Fungal Growth; −: No Fungal Growth; conditions: 4 mg/mL of agar; 12th day after inoculation
Experimental: as §3

[14] = system: Epidermophyton floccosum; assay: as above; assay type: cell-based; set-up: key: +++: Maximum Fungal Growth; ++: Moderate Fungal Growth; +: Minimum Fungal Growth; +/−: Very little Fungal Growth; −: No Fungal Growth; conditions: 4 mg/mL of agar; 12th day after inoculation
Experimental: as §3

[15] = system: Pityrosporum ovale; assay: as above; assay type: cell-based; set-up: key: +++: Maximum Fungal Growth; ++: Moderate Fungal Growth; +: Minimum Fungal Growth; +/−: Very little Fungal Growth; −: No Fungal Growth; conditions: 4 mg/mL of agar; 12th day after inoculation
Experimental: as §3

[16] = system: Trichophyton rubrum; assay: as above; assay type: cell-based; set-up: key: +++: Maximum Fungal Growth; ++: Moderate Fungal Growth; +: Minimum Fungal Growth; +/−: Very little Fungal Growth; −: No Fungal Growth; conditions: 4 mg/mL of agar; 12th day after inoculation
Experimental: as §3

[17] = system: Microsporum canis; assay: as above; assay type: cell-based; conditions: against Microsporum canis
Experimental: as §3

C=C(C)C1CCC2(COC(=O)c3ccccc3C(=O)O)CCC3(C)C(CCC4C5(C)CCC(O)C(C)(C)C5CCC43C)C12 (stereo not drawn) [Betulin-28-phthalate]
Active against Trichophyton tonsurans [1]: Trichophyton tonsurans
Active against Microsporum audouinii [2]: Microsporum audouinii
Fungal growth ([3]; 12.5 μg/ml): ++
Fungal growth ([3]; 25 μg/ml): +
Fungal growth ([3]; 50 μg/ml): −
Fungal growth ([3]; 100 μg/ml): −
Fungal growth ([4]; 12.5 μg/ml): ++
Fungal growth ([4]; 25 μg/ml): +
Fungal growth ([4]; 50 μg/ml): −
Fungal growth ([4]; 100 μg/ml): −
Fungal growth ([5]; 12.5 μg/ml): +++
Fungal growth ([5]; 25 μg/ml): ++
Fungal growth ([5]; 50 μg/ml): ++
Fungal growth ([5]; 100 μg/ml): −
Fungal growth ([6]; 12.5 μg/ml): +++
Fungal growth ([6]; 25 μg/ml): +++
Fungal growth ([6]; 50 μg/ml): ++
Fungal growth ([6]; 100 μg/ml): −
Fungal growth ([7]; 12.5 μg/ml): ++
Fungal growth ([7]; 25 μg/ml): +
Fungal growth ([7]; 50 μg/ml): +
Fungal growth ([7]; 100 μg/ml): −
Fungal growth ([8]; 12.5 μg/ml): +++
Fungal growth ([8]; 25 μg/ml): ++
Fungal growth ([8]; 50 μg/ml): +
Fungal growth ([8]; 100 μg/ml): −
Fungal growth ([9]; 12.5 μg/ml): +++
Fungal growth ([9]; 25 μg/ml): ++
Fungal growth ([9]; 50 μg/ml): +
Fungal growth ([9]; 100 μg/ml): −
Fungal growth ([10]; 12.5 μg/ml): ++
Fungal growth ([10]; 25 μg/ml): +
Fungal growth ([10]; 50 μg/ml): −
Fungal growth ([10]; 100 μg/ml): −

CC1(C)CCC23CCC4(C)C(CCC5C6(C)CCC(OC(=O)CCCC(=O)O)C(C)(C)C6CCC54C)C2C1OC3 (stereo not drawn) [Allobetulin-3-glutarate]
Active against Trichophyton tonsurans [1]: Trichophyton tonsurans
Active against Microsporum audouinii [2]: Microsporum audouinii
Fungal growth ([3]; 12.5 μg/ml): +
Fungal growth ([3]; 25 μg/ml): +/−
Fungal growth ([3]; 50 μg/ml): −
Fungal growth ([3]; 100 μg/ml): −
Fungal growth ([4]; 12.5 μg/ml): +
Fungal growth ([4]; 25 μg/ml): +/−
Fungal growth ([4]; 50 μg/ml): −
Fungal growth ([4]; 100 μg/ml): −
Fungal growth ([5]; 12.5 μg/ml): +++
Fungal growth ([5]; 25 μg/ml): ++
Fungal growth ([5]; 50 μg/ml): ++
Fungal growth ([5]; 100 μg/ml): −
Fungal growth ([6]; 12.5 μg/ml): +++
Fungal growth ([6]; 25 μg/ml): +++
Fungal growth ([6]; 50 μg/ml): +|
Fungal growth ([6]; 100 μg/ml): −
Fungal growth ([7]; 12.5 μg/ml): ++
Fungal growth ([7]; 25 μg/ml): ++
Fungal growth ([7]; 50 μg/ml): +
Fungal growth ([7]; 100 μg/ml): −
Fungal growth ([8]; 12.5 μg/ml): ++
Fungal growth ([8]; 25 μg/ml): +
Fungal growth ([8]; 50 μg/ml): +
Fungal growth ([8]; 100 μg/ml): −
Fungal growth [11]: +
Pityrosporum ovale growth [12]: +
Fungal growth ([9]; 12.5 μg/ml): ++
Fungal growth ([9]; 25 μg/ml): +
Fungal growth ([9]; 50 μg/ml): +
Fungal growth ([9]; 100 μg/ml): −
Fungal growth ([10]; 12.5 μg/ml): +
Fungal growth ([10]; 25 μg/ml): +/−
Fungal growth ([10]; 50 μg/ml): −
Fungal growth ([10]; 100 μg/ml): −
Fungal growth [13]: +
Fungal growth [14]: −
Fungal growth [15]: −
Fungal growth [16]: +

C=C(C)C1CCC2(COC(=O)CCC(=O)O)CC[C@@]3(C)C(CCC4[C@@]5(C)CCC(OC(=O)CCC(=O)O)C(C)(C)C5CC[C@]43C)C12 (stereo partly drawn) [Betulin-3,28-disuccinate]
Active against Microsporum audouinii ([2]; listed as Betulin-3.28-di-succinate): Microsporum audouinii,
Fungal growth ([3]; 125 μg/ml): ++
Fungal growth ([3]; 250 μg/ml): +
Fungal growth ([3]; 500 μg/ml): +
Fungal growth ([3]; 1000 μg/ml): −
best anti-fungal or anti-yeast activity by the direct addition method [17]: against Microsporum canis
Fungal growth ([4]; 125 μg/ml): ++
Fungal growth ([4]; 250 μg/ml): +
Fungal growth ([4]; 500 μg/ml): +
Fungal growth ([4]; 1000 μg/ml): −
Fungal growth ([5]; 125 μg/ml): ++
Fungal growth ([5]; 250 μg/ml): +
Fungal growth ([5]; 500 μg/ml): +
Fungal growth ([5]; 1000 μg/ml): −
Fungal growth ([6]; 125 μg/ml): +++
Fungal growth ([6]; 250 μg/ml): +++
Fungal growth ([6]; 500 μg/ml): +++
Fungal growth ([6]; 1000 μg/ml): +
Fungal growth ([7]; 125 μg/ml): ++
Fungal growth ([7]; 250 μg/ml): +
Fungal growth ([7]; 500 μg/ml): +
Fungal growth ([7]; 1000 μg/ml): −
Fungal growth ([8]; 125 μg/ml): ++
Fungal growth ([8]; 250 μg/ml): +
Fungal growth ([8]; 500 μg/ml): +
Fungal growth ([8]; 1000 μg/ml): −
Fungal growth [11]: +
Pityrosporum ovale growth [12]: +
Fungal growth ([9]; 125 μg/ml): ++
Fungal growth ([9]; 250 μg/ml): +
Fungal growth ([9]; 500 μg/ml): +
Fungal growth ([9]; 1000 μg/ml): −
Fungal growth ([10]; 125 μg/ml): +
Fungal growth ([10]; 250 μg/ml): −
Fungal growth ([10]; 500 μg/ml): −
Fungal growth ([10]; 1000 μg/ml): −
Fungal growth [13]: −
Fungal growth [14]: −
Fungal growth [15]: −
Fungal growth [16]: +
